Experimental data published in ChEMBL document CHEMBL5380808, “Design, Synthesis, and Biological Activity of Marinacarboline Analogues as STAT3 Pathway Inhibitors for Docetaxel-Resistant Triple-Negative Breast Cancer” (J Med Chem, 2023).
Active and inactive are the calls of the source. The rule behind the calls is not given here.

Assays:
[1] = Synergistic antiproliferative activity against docetaxel-resistant human MDA-MB-231-DTR cells assessed as combination index at 4 uM incubated for 72 hrs in presence of 2 uM of docetaxel by Chou-Talalay method; format: functional
[2] = target: Signal transducer and activator of transcription 3 (Homo sapiens) (UniProt P40763); experiment: Inhibition of STAT3 phosphorylation at Y705 residue in human MDA-MB-231 cells assessed as decrease in phosphorylated STAT3 level at 5 uM incubated for 24 hrs by Western blot analysis; format: cell-based
Sequence of Signal transducer and activator of transcription 3 (Homo sapiens) (P40763 whole entry): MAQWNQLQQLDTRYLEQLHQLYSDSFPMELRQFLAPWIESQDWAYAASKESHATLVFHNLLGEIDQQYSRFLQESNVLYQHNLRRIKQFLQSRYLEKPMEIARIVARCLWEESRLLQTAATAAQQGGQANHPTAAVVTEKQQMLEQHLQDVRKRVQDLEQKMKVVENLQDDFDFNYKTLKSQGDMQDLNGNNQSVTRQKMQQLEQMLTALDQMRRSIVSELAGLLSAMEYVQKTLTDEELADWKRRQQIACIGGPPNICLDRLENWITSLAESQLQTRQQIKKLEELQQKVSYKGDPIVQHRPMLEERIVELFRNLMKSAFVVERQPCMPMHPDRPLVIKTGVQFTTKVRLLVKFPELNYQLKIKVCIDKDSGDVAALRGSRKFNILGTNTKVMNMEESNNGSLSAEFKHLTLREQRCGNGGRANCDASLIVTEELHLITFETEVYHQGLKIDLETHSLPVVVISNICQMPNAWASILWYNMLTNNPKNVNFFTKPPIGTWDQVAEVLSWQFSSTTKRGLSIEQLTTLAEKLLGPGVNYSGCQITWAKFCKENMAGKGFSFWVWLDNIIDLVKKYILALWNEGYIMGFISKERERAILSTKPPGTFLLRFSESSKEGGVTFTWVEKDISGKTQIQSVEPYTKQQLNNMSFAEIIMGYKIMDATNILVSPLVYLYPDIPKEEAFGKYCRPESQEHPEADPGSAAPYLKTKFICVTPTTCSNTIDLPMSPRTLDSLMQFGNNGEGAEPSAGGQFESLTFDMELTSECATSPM

[3] = Antiproliferative activity against docetaxel-resistant human MDA-MB-231-DTR cells assessed as reduction in cell viability incubated for 72 hrs by MTT assay; format: functional, cell-based; details: MDA-MB-231, 72 h
MDA-MB-231 [4] = experiment: Inhibition of cell migration in docetaxel-resistant human MDA-MB-231-DTR cells assessed as upregulation of E-cadherin expression level at 3 to 6 uM incubated for 24 hrs by Western blot analysis; format: functional, cell-based; details: dose 3-6 µM
[5] = target: T1, Signal transducer and activator of transcription 5A (Homo sapiens) (UniProt P42229); experiment: Inhibition of STAT5 phosphorylation at Y694 residue in docetaxel-resistant human MDA-MB-231-DTR cells assessed as decrease in phosphorylated STAT5 level at 2.5 to 10 uM incubated for 24 hrs by Western blot analysis; format: cell-based; details: dose 2.5-10 µM
T1 sequence (whole entry): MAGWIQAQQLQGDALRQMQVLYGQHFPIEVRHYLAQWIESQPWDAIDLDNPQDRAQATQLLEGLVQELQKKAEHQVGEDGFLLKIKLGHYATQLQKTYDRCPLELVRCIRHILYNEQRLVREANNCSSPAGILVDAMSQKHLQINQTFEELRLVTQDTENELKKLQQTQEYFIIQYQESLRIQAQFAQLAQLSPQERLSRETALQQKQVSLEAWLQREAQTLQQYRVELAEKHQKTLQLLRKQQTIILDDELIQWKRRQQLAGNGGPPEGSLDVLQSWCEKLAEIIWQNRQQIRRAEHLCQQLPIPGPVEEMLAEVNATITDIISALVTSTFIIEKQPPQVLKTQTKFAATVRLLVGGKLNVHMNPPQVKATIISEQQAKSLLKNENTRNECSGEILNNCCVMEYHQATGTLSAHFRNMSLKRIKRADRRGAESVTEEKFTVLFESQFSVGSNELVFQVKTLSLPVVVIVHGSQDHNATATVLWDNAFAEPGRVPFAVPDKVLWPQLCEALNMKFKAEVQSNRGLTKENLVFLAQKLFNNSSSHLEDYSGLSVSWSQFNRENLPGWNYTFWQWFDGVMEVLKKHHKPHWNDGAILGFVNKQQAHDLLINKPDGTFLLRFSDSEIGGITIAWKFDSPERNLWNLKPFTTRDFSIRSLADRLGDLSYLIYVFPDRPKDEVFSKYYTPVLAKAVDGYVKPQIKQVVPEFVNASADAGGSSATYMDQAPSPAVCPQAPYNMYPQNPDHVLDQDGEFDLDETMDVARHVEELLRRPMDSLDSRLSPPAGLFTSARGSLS

[6] = target: Signal transducer and activator of transcription 3 (Homo sapiens) (UniProt P40763); experiment: Inhibition of STAT3 phosphorylation at Y705 residue in docetaxel-resistant human MDA-MB-231-DTR cells assessed as decrease in phosphorylated STAT3 level at 2.5 to 10 uM incubated for 24 hrs by Western blot analysis; format: cell-based; details: dose 2.5-10 µM
[7] = Induction of cell cycle arrest in docetaxel-resistant human MDA-MB-231-DTR cells assessed as accumulation at subG1 phase at 2.5 uM incubated for 36 hrs by PI staining based flow cytometry analysis (reference value: 0.52%); format: functional
[8] = Induction of cell cycle arrest in docetaxel-resistant human MDA-MB-231-DTR cells assessed as accumulation at S phase at 5 uM incubated for 48 hrs by PI staining based flow cytometry analysis (reference value: 10.56%); format: functional
[9] = Induction of cell cycle arrest in docetaxel-resistant human MDA-MB-231-DTR cells assessed as accumulation at G0/G1 phase at 5 uM incubated for 24 hrs by PI staining based flow cytometry analysis (reference value: 75.49%); format: functional
MDA-MB-231 [10] = experiment: Induction of apoptosis in docetaxel-resistant human MDA-MB-231-DTR cells assessed as upregulation of cleaved-caspase-3 expression level at 2.5 to 10 uM incubated for 48 hrs by Western blot analysis; format: functional, cell-based; details: dose 2.5-10 µM
[11] = Synergistic antiproliferative activity against docetaxel-resistant human MDA-MB-231-DTR cells assessed as combination index at 2 uM incubated for 72 hrs in presence of 1 uM of docetaxel by Chou-Talalay method; format: functional
[12] = Synergistic antiproliferative activity against docetaxel-resistant human MDA-MB-231-DTR cells assessed as combination index at 2 uM incubated for 72 hrs in presence of 4 uM of docetaxel by Chou-Talalay method; format: functional
MDA-MB-231 [13] = experiment: Antitumor activity against docetaxel-resistant human MDA-MB-231-DTR cells xenografted in BALB/c mouse assessed as downregulation of vimentin level in tumor tissue at 10 mg/kg, ip daily for 12 days by Immunohistochemical analysis; format: functional, organism-based; details: time 12.0 day
MDA-MB-231 [14] = experiment: Antitumor activity against docetaxel-resistant human MDA-MB-231-DTR cells xenografted in BALB/c mouse assessed as reduction in tumor volume at 10 mg/kg, ip daily for 12 days in presence of docetaxel; format: functional, organism-based; details: time 12.0 day
[15] = Induction of cell cycle arrest in docetaxel-resistant human MDA-MB-231-DTR cells assessed as accumulation at subG1 phase at 10 uM incubated for 36 hrs by PI staining based flow cytometry analysis (reference value: 0.52%); format: functional
MDA-MB-231 [16] = experiment: Induction of cell cycle arrest at G2/M phase in docetaxel-resistant human MDA-MB-231-DTR cells assessed as upregulation of Chk1 phosphorylation at S345 at 2.5 to 10 uM incubated for 36 hrs by Western blot analysis; format: functional, cell-based; details: dose 2.5-10 µM
[17] = Induction of cell cycle arrest in docetaxel-resistant human MDA-MB-231-DTR cells assessed as accumulation at G2/M phase at 5 uM incubated for 48 hrs by PI staining based flow cytometry analysis (reference value: 13.54%); format: functional
[18] = Induction of cell cycle arrest in docetaxel-resistant human MDA-MB-231-DTR cells assessed as accumulation at S phase at 2.5 uM incubated for 36 hrs by PI staining based flow cytometry analysis (reference value: 11.57%); format: functional
[19] = Induction of cell cycle arrest in docetaxel-resistant human MDA-MB-231-DTR cells assessed as accumulation at G2/M phase at 5 uM incubated for 24 hrs by PI staining based flow cytometry analysis (reference value: 13.54%); format: functional
MDA-MB-231 [20] = experiment: Antitumor activity against docetaxel-resistant human MDA-MB-231-DTR cells xenografted in BALB/c mouse assessed as reduction in tumor weight at 10 mg/kg, ip daily for 12 days in presence of docetaxel; format: functional, organism-based; details: time 12.0 day
[21] = Induction of cell cycle arrest in docetaxel-resistant human MDA-MB-231-DTR cells assessed as accumulation at S phase at 5 uM incubated for 24 hrs by PI staining based flow cytometry analysis (reference value: 10.56%); format: functional
[22] = Induction of cell cycle arrest in docetaxel-resistant human MDA-MB-231-DTR cells assessed as accumulation at G0/G1 phase at 5 uM incubated for 48 hrs by PI staining based flow cytometry analysis (reference value: 75.49%); format: functional

For `O=C(NCCc1c[nH]c2ccccc12)c1cc2c([nH]c3ccccc32)c(C(=O)c2ccc(Br)cc2)n1`, the CI [1] was 0.53, the inhibition [2] was “Active” and the IC50 [3] was 3.24 µM. For the same compound, the inhibition (MDA-MB-231 [4]) was “Active”, the inhibition [5] was “inactive” and the inhibition [6] was “Active”. The Activity [7] was 0.57%, the Activity [8] was 12.49% and the Activity [9] was 82.18%. For the same compound, the Activity (MDA-MB-231 [10]) was “Active”, the CI [11] was 0.26 and the CI [12] was 0.32. For the same compound, the Activity (MDA-MB-231 [13]) was “Active”, the Activity (MDA-MB-231 [14]) was “Active” and the Activity [15] was 2.51%. The Activity (MDA-MB-231 [16]) was “Active”, the Activity [17] was 12.87% and the Activity [18] was 12.13%. For the same compound, the Activity [19] was 21.18%, the Activity (MDA-MB-231 [20]) was “Active” and the Activity [21] was 18.28%. The Activity [22] was 48.08%.
